# Data: patent publication US20050032858A1, “Novel heterocyclic compound and anti-inflamatory agent” (priority 2001, published 2005)
# Where two headings read alike, the source gives them in different places.
# Columns and labels:
# [1] = test system: mouse ear edema induced by TPA; format: in vivo, ICR-strain male mouse; details: topical, measured 6 hours after TPA
# Description: This test was carried out referring to the methods of Carlson, R. P., et al. [Agents and Actions 17 (2): 197-204 (1985)] and of Chang, J., et al. [European Journal of Pharmacology 142: 197-205 (1987)]: 5 μg/20 μL of TPA (Sigma Chemical Co., Ltd.) dissolved in ethanol was applied on the anterior and posterior surfaces of the right ear of an ICR-strain male mouse (6 to 7 weeks old). The thickness of a specific area of each of the ears was measured 3 times by a digimatic micrometer 6 hours after the application. The mean values were calculated. Ear edema was determined by subtracting the mean thickness of the non-treated left ear from that of the TPA-applied right ear. A topical application activity was evaluated in a way that an acetone solution or a 0.1% Tween 80/acetone solution of a compound of the present invention was applied on the anterior and posterior surfaces of the right ear 30 minutes before and 15 minutes after the application of TPA. […] An oral administration activity was evaluated by forced oral administration of a suspension of a compound of the present invention in 2% Tween 80/distilled water an hour before applying TPA. […]
# [2] = test system: acetic acid induced writhes; assay: Acetic acid writhing; format: in vivo, ICR-strain male mouse; details: i.p., 30 minutes before, vehicle control 25.2 ± 2.2
# Description: This test was carried out referring to the methods of Inoue, K., Motonaga, A. and Nishimura, T. [Arzneimittel Forshung/Drug Research 41 (1): 235-239 (1991)] and of Murata, T., et al. [Nature 388: 678-682 (1997)]: 7.5 mL/kg of a 0.9% aqueous solution of acetic acid was injected intraperitoneally into an ICR-strain male mouse (6 to 8 weeks old). The number of induced writhes (characteristic behavior of contracting the abdomen, twisting the body and/or extending the hind legs in agony) was counted in a period between 10 minutes and 20 minutes after the injection. A compound of the present invention was homogeneously suspended in 2% Tween 80/saline for injection use and injected intraperitoneally 30 minutes before the induction of stimulation by the acetic acid injection. Alternatively the compound was homogeneously suspended in 2% Tween 80/distilled water and orally administered an hour before the stimulation induction by the acetic acid injection. The analgesic activity of the compound of the present invention was evaluated on the basis of how many writhes were suppressed by the administration. Indomethacin or aspirin was administered as the positive control.
compound,measurement,setting,value
"CC(=O)OCC(=O)[C@@]1(O)[C@H](C)C[C@H]2[C@@H]3CCC4=CC(=O)C=C[C@]4(C)[C@@]3(F)[C@@H](O)C[C@@]21C [DEX-Ac, dexamediasone-21-acetate]",Ear edema inhibition (%),[1]; 1 mg/20 μL/ear × 2,79.6%
"CC(=O)Oc1ccccc1C(=O)O [Aspirin, aspirin]",No. of writhes (mean ± S.E.),[2]; 30 mg/kg,9.5 ± 2.0
"COc1ccc2c(c1)c(CC(=O)O)c(C)n2C(=O)c1ccc(Cl)cc1 [Indomethacin, indomethacin]",No. of writhes (mean ± S.E.),[2]; 3 mg/kg,13.8 ± 3.0
same,No. of writhes (mean ± S.E.),[2]; 10 mg/kg,4.8 ± 0.9
same,Ear edema inhibition (%),[1]; 3 mg/40 μL/ear × 2,63.5%
